What was measured:
Escherichia coli [1] = experiment: Synergistic antimicrobial activity against Escherichia coli 25922 assessed as fractional inhibitory concentration index by checkerboard broth microdilution assay; format: functional
Escherichia coli [2] = experiment: Synergistic antimicrobial activity against Escherichia coli UB1005 assessed as fractional inhibitory concentration index in presence of cuminaldehyde by checkerboard broth microdilution assay; format: functional
Escherichia coli [3] = experiment: Synergistic antimicrobial activity against Escherichia coli UB1005 assessed as fractional inhibitory concentration index in presence of citral by checkerboard broth microdilution assay; format: functional
Escherichia coli [4] = experiment: Synergistic antimicrobial activity against Escherichia coli UB1005 assessed as fractional inhibitory concentration index in presence of perillaldehyde by checkerboard broth microdilution assay; format: functional
Escherichia coli [5] = experiment: Synergistic antimicrobial activity against Escherichia coli K88 assessed as fractional inhibitory concentration index in presence of citral by checkerboard broth microdilution assay; format: functional
Escherichia coli [6] = experiment: Synergistic antimicrobial activity against Escherichia coli K88 assessed as fractional inhibitory concentration index in presence of perillaldehyde by checkerboard broth microdilution assay; format: functional
Escherichia coli [7] = experiment: Synergistic antimicrobial activity against Escherichia coli K88 assessed as fractional inhibitory concentration index in presence of carvacrol by checkerboard broth microdilution assay; format: functional
Escherichia coli [8] = experiment: Synergistic antimicrobial activity against Escherichia coli K99 assessed as fractional inhibitory concentration index in presence of cuminaldehyde by checkerboard broth microdilution assay; format: functional
Escherichia coli [9] = experiment: Synergistic antimicrobial activity against Escherichia coli K99 assessed as fractional inhibitory concentration index in presence of perillaldehyde by checkerboard broth microdilution assay; format: functional
Escherichia coli [10] = experiment: Synergistic antimicrobial activity against Escherichia coli K99 assessed as fractional inhibitory concentration index in presence of thymol by checkerboard broth microdilution assay; format: functional
Escherichia coli [11] = experiment: Synergistic antimicrobial activity against Escherichia coli K99 assessed as fractional inhibitory concentration index in presence of carvacrol by checkerboard broth microdilution assay; format: functional
Escherichia coli [12] = experiment: Synergistic antimicrobial activity against Escherichia coli 078 assessed as fractional inhibitory concentration index in presence of citronellal by checkerboard broth microdilution assay; format: functional, 78
Escherichia coli [13] = experiment: Synergistic antimicrobial activity against Escherichia coli 078 assessed as fractional inhibitory concentration index in presence of citral by checkerboard broth microdilution assay; format: functional, 78
Escherichia coli [14] = experiment: Synergistic antimicrobial activity against Escherichia coli 078 assessed as fractional inhibitory concentration index in presence of thymol by checkerboard broth microdilution assay; format: functional, 78
Escherichia coli [15] = experiment: Synergistic antimicrobial activity against Escherichia coli 078 assessed as fractional inhibitory concentration index in presence of carvacrol by checkerboard broth microdilution assay; format: functional, 78
Salmonella typhimurium [16] = experiment: Synergistic antimicrobial activity against Salmonella typhimurium 14028 assessed as fractional inhibitory concentration index in presence of citronellal by checkerboard broth microdilution assay; format: functional, Salmonella enterica subsp. enterica serovar Typhimurium
Salmonella typhimurium [17] = experiment: Synergistic antimicrobial activity against Salmonella typhimurium 14028 assessed as fractional inhibitory concentration index in presence of perillaldehyde by checkerboard broth microdilution assay; format: functional, Salmonella enterica subsp. enterica serovar Typhimurium
Salmonella typhimurium [18] = experiment: Synergistic antimicrobial activity against Salmonella typhimurium 7731 assessed as fractional inhibitory concentration index in presence of citral by checkerboard broth microdilution assay; format: functional, Salmonella enterica subsp. enterica serovar Typhimurium
Pseudomonas aeruginosa [19] = experiment: Synergistic antimicrobial activity against Pseudomonas aeruginosa 27853 assessed as fractional inhibitory concentration index in presence of carvacrol by checkerboard broth microdilution assay; format: functional
Staphylococcus aureus [20] = experiment: Synergistic antimicrobial activity against Staphylococcus aureus 25923 assessed as fractional inhibitory concentration index in presence of cuminaldehyde by checkerboard broth microdilution assay; format: functional
Staphylococcus aureus [21] = experiment: Synergistic antimicrobial activity against Staphylococcus aureus 25923 assessed as fractional inhibitory concentration index in presence of thymol by checkerboard broth microdilution assay; format: functional
Staphylococcus aureus [22] = experiment: Synergistic antimicrobial activity against Staphylococcus aureus 29213 assessed as fractional inhibitory concentration index in presence of perillaldehyde by checkerboard broth microdilution assay; format: functional
[23] = system: Staphylococcus epidermidis; experiment: Synergistic antimicrobial activity against Staphylococcus epidermidis 12228 assessed as fractional inhibitory concentration index in presence of citronellal by checkerboard broth microdilution assay; format: functional
[24] = system: Staphylococcus epidermidis; experiment: Synergistic antimicrobial activity against Staphylococcus epidermidis 12228 assessed as fractional inhibitory concentration index in presence of citral by checkerboard broth microdilution assay; format: functional
[25] = system: Staphylococcus epidermidis; experiment: Synergistic antimicrobial activity against Staphylococcus epidermidis 12228 assessed as fractional inhibitory concentration index in presence of thymol by checkerboard broth microdilution assay; format: functional
Enterococcus faecalis [26] = experiment: Synergistic antimicrobial activity against Enterococcus faecalis 29212 assessed as fractional inhibitory concentration index in presence of cuminaldehyde by checkerboard broth microdilution assay; format: functional
Enterococcus faecalis [27] = experiment: Synergistic antimicrobial activity against Enterococcus faecalis 29212 assessed as fractional inhibitory concentration index in presence of citral by checkerboard broth microdilution assay; format: functional
Enterococcus faecalis [28] = experiment: Synergistic antimicrobial activity against Enterococcus faecalis 29212 assessed as fractional inhibitory concentration index in presence of thymol by checkerboard broth microdilution assay; format: functional
Enterococcus faecalis [29] = experiment: Synergistic antimicrobial activity against Enterococcus faecalis 29212 assessed as fractional inhibitory concentration index in presence of carvacrol by checkerboard broth microdilution assay; format: functional
Salmonella typhimurium [30] = experiment: Antimicrobial activity against Salmonella typhimurium ATCC 7731 assessed as reduction in microbial growth by CLSI based broth microdilution method; format: functional, Salmonella enterica subsp. enterica serovar Typhimurium; details: Salmonella enterica
[31] = Antimicrobial activity against Salmonella enterica subsp. enterica serovar Pullorum ATCC 7913 assessed as reduction in microbial growth by CLSI based broth microdilution method; format: functional
Staphylococcus aureus [32] = experiment: Antimicrobial activity against Staphylococcus aureus ATCC 29213 assessed as reduction in microbial growth by CLSI based broth microdilution method; format: functional
Escherichia coli [33] = experiment: Synergistic antimicrobial activity against Escherichia coli K88 assessed as fractional inhibitory concentration by checkerboard broth microdilution assay; format: functional
Salmonella typhimurium [34] = experiment: Synergistic antimicrobial activity against Salmonella typhimurium ATCC 14028 assessed as fractional inhibitory concentration by checkerboard broth microdilution assay; format: functional, Salmonella enterica subsp. enterica serovar Typhimurium
[35] = Synergistic antimicrobial activity against Salmonella enterica subsp. enterica serovar Pullorum ATCC 7913 assessed as fractional inhibitory concentration by checkerboard broth microdilution assay; format: functional
Pseudomonas aeruginosa [36] = experiment: Synergistic antimicrobial activity against Pseudomonas aeruginosa ATCC 27853 assessed as fractional inhibitory concentration by checkerboard broth microdilution assay; format: functional
Staphylococcus aureus [37] = experiment: Synergistic antimicrobial activity against Staphylococcus aureus ATCC 29213 assessed as fractional inhibitory concentration by checkerboard broth microdilution assay; format: functional
Staphylococcus aureus [38] = experiment: Synergistic antimicrobial activity against Staphylococcus aureus 43300 assessed as fractional inhibitory concentration by checkerboard broth microdilution assay; format: functional
Escherichia coli [39] = experiment: Antimicrobial activity against Escherichia coli K88 assessed as reduction in microbial growth in presence of cuminaldehyde by CLSI based broth microdilution method; format: functional
Staphylococcus aureus [40] = experiment: Antimicrobial activity against Staphylococcus aureus ATCC 29213 assessed as reduction in microbial growth in presence of cuminaldehyde by CLSI based broth microdilution method; format: functional
Escherichia coli [41] = experiment: Antimicrobial activity against Escherichia coli ATCC 25922 assessed as reduction in microbial growth in presence of cuminaldehyde by CLSI based broth microdilution method; format: functional
Salmonella typhimurium [42] = experiment: Antimicrobial activity against Salmonella typhimurium ATCC 14028 assessed as cuminaldehyde MIC by CLSI based broth microdilution method; format: functional, Salmonella enterica subsp. enterica serovar Typhimurium; details: Salmonella enterica
Pseudomonas aeruginosa [43] = experiment: Antimicrobial activity against Pseudomonas aeruginosa ATCC 27853 assessed as cuminaldehyde MIC by CLSI based broth microdilution method; format: functional
Staphylococcus aureus [44] = experiment: Antimicrobial activity against Staphylococcus aureus ATCC 25923 assessed as cuminaldehyde MIC by CLSI based broth microdilution method; format: functional

CC[C@H](C)[C@H](NC(=O)[C@@H](NC(=O)[C@@H](CCCNC(=N)N)NC(=O)[C@H](C)NC(=O)[C@H](C)NC(=O)[C@@H](N)Cc1cccc2ccccc12)[C@@H](C)CC)C(=O)N[C@@H](CC(C)C)C(=O)N[C@H](CCCNC(=N)N)C(=O)N[C@@H](Cc1c[nH]c2ccccc12)C(=O)N[C@H](CCCNC(=N)N)C(=O)N[C@@H](Cc1ccccc1)C(=O)N[C@@H](CCCNC(=N)N)C(=O)O
fractional inhibitory concentration index (FICI) (Escherichia coli [1]): 0.25
fractional inhibitory concentration index (FICI) (Escherichia coli [2]): 0.188
fractional inhibitory concentration index (FICI) (Escherichia coli [3]): 0.257
fractional inhibitory concentration index (FICI) (Escherichia coli [4]): 0.281
fractional inhibitory concentration index (FICI) (Escherichia coli [5]): 0.188
fractional inhibitory concentration index (FICI) (Escherichia coli [6]): 0.375
fractional inhibitory concentration index (FICI) (Escherichia coli [7]): 0.313
fractional inhibitory concentration index (FICI) (Escherichia coli [8]): 0.375
fractional inhibitory concentration index (FICI) (Escherichia coli [9]): 0.375
fractional inhibitory concentration index (FICI) (Escherichia coli [10]): 0.5
fractional inhibitory concentration index (FICI) (Escherichia coli [11]): 0.5
fractional inhibitory concentration index (FICI) (Escherichia coli [12]): 0.156
fractional inhibitory concentration index (FICI) (Escherichia coli [13]): 0.094
fractional inhibitory concentration index (FICI) (Escherichia coli [14]): 0.5
fractional inhibitory concentration index (FICI) (Escherichia coli [15]): 0.5
fractional inhibitory concentration index (FICI) (Salmonella typhimurium [16]): 0.254
fractional inhibitory concentration index (FICI) (Salmonella typhimurium [17]): 0.254
fractional inhibitory concentration index (FICI) (Salmonella typhimurium [18]): 0.141
fractional inhibitory concentration index (FICI) (Pseudomonas aeruginosa [19]): 0.5
fractional inhibitory concentration index (FICI) (Staphylococcus aureus [20]): 0.188
fractional inhibitory concentration index (FICI) (Staphylococcus aureus [21]): 0.25
fractional inhibitory concentration index (FICI) (Staphylococcus aureus [22]): 0.25
fractional inhibitory concentration index (FICI) [23]: 0.25
fractional inhibitory concentration index (FICI) [24]: 0.5
fractional inhibitory concentration index (FICI) [25]: 0.75
fractional inhibitory concentration index (FICI) (Enterococcus faecalis [26]): 0.313
fractional inhibitory concentration index (FICI) (Enterococcus faecalis [27]): 0.375
fractional inhibitory concentration index (FICI) (Enterococcus faecalis [28]): 0.75
fractional inhibitory concentration index (FICI) (Enterococcus faecalis [29]): 0.375
MIC (Salmonella typhimurium [30]): 8 µg/mL
MIC [31]: 16 µg/mL
MIC (Staphylococcus aureus [32]): 16 µg/mL
FIC (Escherichia coli [33]): 0.063
FIC (Salmonella typhimurium [34]): 0.25
FIC [35]: 0.125
FIC (Pseudomonas aeruginosa [36]): 0.125
FIC (Staphylococcus aureus [37]): 0.25
FIC (Staphylococcus aureus [38]): 0.25
MIC (Escherichia coli [39]): 2 µg/mL
MIC (Staphylococcus aureus [40]): 2 µg/mL
MIC (Escherichia coli [41]): 1 µg/mL
MIC (Salmonella typhimurium [42]): 1020 µg/mL
MIC (Pseudomonas aeruginosa [43]): 512 µg/mL
MIC (Staphylococcus aureus [44]): 256 µg/mL

Reference: ChEMBL document CHEMBL6087462, “Cuminaldehyde Potentiates Antiproteolytic Peptide Efficacy via Parallel Pathways of Enhanced Inner Membrane-Damaging Activity and Inhibition of Bacterial Energy Metabolism” (J Med Chem, 2025)
